From ChEMBL document CHEMBL1201862, “PubChem BioAssay data set” (2004) come the findings set out here.

Each structure is given as a SMILES string.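 These data come from cells grown in 96-well plates and exposed to compound for 48 hours at five concentrations. GI50: concentration for 50% inhibition of growth.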 The source made the active and inactive calls. Cut-off read from the data, not from the text of the source: active = GI50 up to about 1.1 µM and inactive = higher.

What all share (experiment): inhibition of tumour cell growth, NCI panel, 48 h
Experiment [1] deals with CAKI-1.
Experiment [2] has as its system DLD-1.
The test system of experiment [3] is OVCAR-4.
Experiment [4] has as its system KM-20L2.
Experiment [5] relates to HOP-18.
Experiment [6] relates to HCT-15.
Experiment [7] relates to Malme-3M.
Experiment [8] has as its system A549.
Experiment [9] concerns SW-620.
Experiment [10] concerns OVCAR-5.
Experiment [11] concerns HL-60.
Experiment [12] has as its system OVCAR-8.
The subject of experiment [13] is SK-MEL-5.
Experiment [14] concerns SNB-19.
In experiment [15] the test system is NCI-H226.
The test system of experiment [16] is HOP-62.
The test system of experiment [17] is UO-31.
The subject of experiment [18] is SR.
Experiment [19] deals with PC-3.
For experiment [20], the system named is Hs-578T.

In the case of `NC(=O)CCC(N=C(N)c1csc(C2OC(CO)C(O)C2O)n1)C(=O)O` (stereo unspecified), the GI50 was > 100 µM (inactive) in experiment [1]; > 100 µM (inactive) in experiment [2]; > 100 µM (inactive) in experiment [3]; > 100 µM (inactive) in experiment [4]; < 0.01 µM (active) in [5]; above 100 µM in [6]. For the same compound, the GI50 in experiment [7], in [8], in experiment [9], in [10], in experiment [11] and in experiment [12] was > 100 µM (inactive) in each case. Besides, the GI50 in [13] is > 100 µM (inactive).
As for `N/C(=N\O)N/N=C\c1c(O)cc(O)cc1O`, the GI50 in [1] is > 100 µM (inactive); in [2], > 82.8 µM (inactive); in experiment [3], > 68.4 µM (inactive); in experiment [4], > 100 µM (inactive); in [5], > 64 µM (inactive); in [6] it was 63.4 µM. Besides, the GI50 was > 100 µM (inactive) in experiment [7]; 45.1 µM (inactive) in experiment [8]; > 70.3 µM (inactive) in experiment [9]; > 100 µM (inactive) in experiment [10]; 26.1 µM (inactive) in experiment [11]; 65.9 µM (inactive) in experiment [14]. Further, the GI50 in experiment [15] was 66.7 µM (inactive); in [16], > 87.9 µM (inactive); in experiment [17], 26 µM (inactive); in experiment [12], 39.4 µM (inactive); in experiment [13] it was 50.6 µM (inactive).
Consider `CC(C)(C)C1(c2ccc(C3(c4ccccc4)Oc4ccccc4S3)[nH]2)Oc2ccccc2S1` (stereo unspecified), for which the GI50 in experiment [1] was > 100 µM (inactive); in experiment [2], > 100 µM (inactive); in experiment [4], > 100 µM (inactive); in [5], > 100 µM (inactive); in [6], above 100 µM; in [7], > 100 µM (inactive). The GI50 in experiment [8] is > 100 µM (inactive); in [9] it was > 100 µM (inactive); in experiment [10], > 100 µM (inactive); in experiment [11], > 100 µM (inactive); in [14], > 100 µM (inactive); in experiment [15], 55 µM (inactive). In addition, the GI50 is > 100 µM (inactive) in [16], 90.4 µM (inactive) in experiment [17], > 100 µM (inactive) in [12] and > 100 µM (inactive) in experiment [13].
Take `Cc1[nH]c(=O)[nH]c(=O)c1/C=C/C(=O)NC(CO)C[S+]([O-])Cc1ccccc1` (stereo unspecified): the GI50 was > 300 µM (inactive) in [1]; > 300 µM (inactive) in [2]; > 300 µM (inactive) in [4]; > 289 µM (inactive) in experiment [5]; above 300 µM in experiment [6]; > 300 µM (inactive) in experiment [7]. Further, the GI50 in experiment [8], in experiment [9], in experiment [10], in [11], in experiment [14] and in experiment [15] was > 300 µM (inactive) throughout. In addition, the GI50 in experiment [16], in experiment [17], in experiment [12] and in experiment [13] was > 300 µM (inactive) each time.
Take `C=CC12CN(C)C3C4COC(CC41)C1(C(=O)Nc4ccccc41)C32` (stereo unspecified): the GI50 in experiment [1] is > 200 µM (inactive); in experiment [2], 198 µM (inactive); in experiment [3] it was > 200 µM (inactive); in experiment [4], > 151 µM (inactive); in experiment [5] it was > 200 µM (inactive); in experiment [6] it was above 195 µM. Besides, the GI50 in experiment [7] was 174 µM (inactive); in experiment [8], 166 µM (inactive); in [9] it was 174 µM (inactive); in experiment [10], > 200 µM (inactive); in [11], 152 µM (inactive); in experiment [14] it was > 200 µM (inactive). In addition, the GI50 in experiment [15] was 6.67 µM (inactive); in experiment [16], > 147 µM (inactive); in [17], > 181 µM (inactive); in experiment [12], > 200 µM (inactive); in [13] it was > 200 µM (inactive).
With `O=C1C(Cl)N(c2ccc(Cl)cc2Cl)C1c1c[nH]c2ccccc12` (stereo unspecified), the GI50 in [3] is > 100 µM (inactive); in experiment [4], > 100 µM (inactive); in [18], 59.8 µM (inactive); in [7], > 100 µM (inactive); in experiment [8], > 100 µM (inactive); in experiment [9], > 100 µM (inactive). For the same compound, the GI50 is > 100 µM (inactive) in [11]; 6.01 µM (inactive) in experiment [14]; > 100 µM (inactive) in [16]; 4.75 µM (inactive) in [17]; > 100 µM (inactive) in experiment [12]; > 100 µM (inactive) in experiment [13].
Turning to `Cn1cnc(/C=C/C#N)c1`, the GI50 in [1] is > 100 µM (inactive); in [19], > 100 µM (inactive); in [3], > 100 µM (inactive); in experiment [6] it was above 100 µM; in experiment [18], > 100 µM (inactive); in [7], > 100 µM (inactive). Besides, the GI50 in experiment [8] was > 100 µM (inactive); in experiment [9], > 100 µM (inactive); in experiment [10] it was > 100 µM (inactive); in experiment [14], > 100 µM (inactive); in experiment [15], 76.7 µM (inactive); in [16] it was > 100 µM (inactive). In addition, the GI50 in experiment [17], in [12] and in [13] was > 100 µM (inactive) in each case.
As for `COC(=O)C1=C(O)C(C(=O)OC)[C@@]2(O)[C@@H](C(=O)OC)CC[C@@H]1[C@@H]2C(=O)OC` (stereo partly specified), the GI50 in experiment [20] was 11.1 µM (inactive); in experiment [6], 20.6 µM; in [18], 14.9 µM (inactive); in experiment [7] it was 21.5 µM (inactive); in [10], 28.2 µM (inactive); in [11] it was 23.3 µM (inactive). For the same compound, the GI50 was 43.4 µM (inactive) in [14], 20.1 µM (inactive) in experiment [15], 23.8 µM (inactive) in experiment [16] and 29.2 µM (inactive) in experiment [17].
With `C=CCn1c2ccccc2c2c(C)c3cnccc3c(C)c21`, the GI50 in experiment [1] is 2.06 µM (inactive); in experiment [2], 7.08 µM (inactive); in experiment [3], 8.97 µM (inactive); in experiment [4] it was 6.75 µM (inactive); in experiment [5], > 125 µM (inactive); in [6], 6.92 µM. The GI50 is 13.8 µM (inactive) in experiment [7]; 9.77 µM (inactive) in [8]; 6.61 µM (inactive) in experiment [9]; 6.38 µM (inactive) in experiment [10]; 3.17 µM (inactive) in [11]; 12.9 µM (inactive) in experiment [14]. The GI50 in experiment [15] is 5.16 µM (inactive); in [16], 9.98 µM (inactive); in [17], 4.39 µM (inactive); in experiment [12] it was 5.53 µM (inactive); in [13], 6.82 µM (inactive).
`COc1cc2c(cc1OC)C1Cc3sccc3CN1CC2` (stereo unspecified): the GI50 in experiment [1] was > 100 µM (inactive); in [2], > 100 µM (inactive); in experiment [3], > 100 µM (inactive); in experiment [4] it was > 100 µM (inactive); in [5], > 100 µM (inactive); in experiment [6], above 100 µM. In addition, the GI50 in experiment [18] is 88.9 µM (inactive); in experiment [7] it was > 100 µM (inactive); in experiment [8], > 100 µM (inactive); in experiment [9], > 100 µM (inactive); in experiment [10] it was > 100 µM (inactive); in [11], > 100 µM (inactive). Further, the GI50 in [14], in experiment [15], in experiment [16], in experiment [17], in experiment [12] and in experiment [13] was > 100 µM (inactive) throughout.
Regarding `CCOC(=O)C(NC(C)=O)(Nc1ccc(F)cc1)C(F)(F)F` (stereo unspecified), the GI50 is > 100 µM (inactive) in [1]; > 100 µM (inactive) in experiment [19]; > 100 µM (inactive) in experiment [20]; 88.1 µM (inactive) in experiment [3]; 0.49 µM in experiment [6]; 24.8 µM (inactive) in experiment [18]. The GI50 was 39.3 µM (inactive) in experiment [8]; 28.8 µM (inactive) in experiment [9]; 47 µM (inactive) in experiment [10]; 4.79 µM (inactive) in [11]; > 100 µM (inactive) in [14]; 34.8 µM (inactive) in experiment [17]. Moreover, the GI50 in [12] was > 100 µM (inactive); in experiment [13] it was 3.03 µM (inactive).
As to `O=c1c(Cc2ccc(Cc3c(O)oc4ccccc4c3=O)cc2)c(O)oc2ccccc12`, the GI50 in [1] was > 100 µM (inactive); in experiment [19], > 100 µM (inactive); in [20] it was > 100 µM (inactive); in experiment [3], > 100 µM (inactive); in [6], above 100 µM; in experiment [18], > 100 µM (inactive). Also, the GI50 in experiment [7], in [8], in [9], in experiment [10], in experiment [11] and in experiment [15] was > 100 µM (inactive) throughout. In addition, the GI50 was > 100 µM (inactive) in experiment [16], 42 µM (inactive) in [17], > 100 µM (inactive) in [12] and > 100 µM (inactive) in experiment [13].
